Experiments:
Format in all cases: in vivo
[1] = test system: ApoE−/− mice; test: Treatment of ApoE−/− mice with nor-UDCA (Experiment 1); conditions: 0.5% w/w in western chow diet for 4 weeks after 8 weeks western chow diet, vs control
Method: In order to study the effects of nor-UDCA on atherosclerosis, ApoE-deficient mice were treated. To this end ApoE−/− mice as described in Piedrahita et. al. (PNAS, 1992, 89, 4471-4475) which carry the Apoe^tm1Unc mutation were back-crossed 10 times into the C57BL76J. ApoE-deficient mice can also be obtained from the Jackson Laboratory (Maine, US) with the strain name B6.129P2.-Apoe^tm1Unc/J(http://jaxmice.jax.org).
ApoE−/− mice (n=10) were fed with normal diet for 8 weeks post natum, followed by western chow diet for another 8 weeks. The western chow diet consists of 21% by weight fat, 1.5% by weight cholesterol and no cholic acid (“high fat diet”).
This type of western chow diet is known to force atherosclerotic plaque formation on the indicated time line in ApoE−/− mice. After eight weeks of being fed with western chow diet, the mice were segregated into two groups with each group comprising five mice. In the control group A, the mice were further fed with the western chow diet for additional four weeks. In the other group B, the ApoE−/− mice were fed with a western chow diet comprising 0.5% w/w nor-UDCA for additional four weeks. Considering a food intake of 4 g/day of chow per mouse, this corresponds to 20 mg/day of nor-UDCA per mouse.
The experimental setup is depicted in FIG. 1.

[2] = test system: ApoE−/− mice; test: Prevention of atherosclerosis in ApoE−/− mice by nor-UDCA in comparison to UDCA (Experiment 4); conditions: prevention study, 0.5% w/w in western chow diet for 12 weeks
From the text: (§1) ApoE-deficient mice as described in Experiment 1 were used.
ApoE−/− mice (n=15) were fed with normal diet for 8 weeks post natum and then segregated into three groups with each group comprising five mice. In the control group, the mice were fed with the western chow diet for additional 12 weeks. In the second group, the ApoE−/− mice were fed with a western chow diet comprising 0.5% w/w nor-UDCA for additional 12 weeks. Finally, in the third group, the ApoE−/− mice were fed with a western chow diet comprising 0.5% w/w UDCA for additional 12 weeks. Considering a food intake of 4 g/day of chow per mouse, this corresponds to 20 mg/day of nor-UDCA or UDCA, respectively, per mouse.
Thus, in this experimental prevention setup, the mice are fed with diet known to force atherosclerotic plaque formation together with either UDCA or nor-UDCA (mice of the second and third group) having preventive effects on the plaque formation. When compared to a control fed with western chow diet only, the preventive effects can be studied.
The experimental setup is depicted in FIG. 14(a).

[3] = test system: ApoE−/− mice; test: Treatment of ApoE−/− mice with nor-UDCA in comparison to UDCA (Experiment 3); conditions: for % plaques in the aortic arch (plaque area versus total area, en-face red oil): FIG. 12; for plaques in red-oil stained aortic valve cross-sections (histological analysis): FIG. 13 top
From the text: as §1
ApoE−/− mice (n=15) were fed with normal diet for 8 weeks post natum, followed by western chow diet (“high fat diet”) for another 8 weeks. The mice were then segregated into three groups with each group comprising five mice. In the control group, the mice were further fed with the western chow diet for additional four weeks. In the second group, the ApoE−/− mice were fed with a western chow diet comprising 0.5% w/w nor-UDCA for additional four weeks. Finally, in the third group, the ApoE−/− mice were fed with a western chow diet comprising 0.5% w/w UDCA for additional four weeks. Considering a food intake of 4 g/day of chow per mouse, this corresponds to 20 mg/day of nor-UDCA or UDCA, respectively, per mouse.
The experimental setup is depicted in FIG. 6.

[4] = test system: LDLR−/− mice; test: Treatment of LDLR−/− mice with nor-UDCA (Experiment 2); conditions: 0.5% w/w in western chow diet for 4 weeks after 8 weeks western chow diet; vs control; FIG. 5
From the text: In a second experiment (FIGS. 4 and 5), the effect of nor-UDCA in LDLR−/− mice that were raised on a western chow diet was investigated.
As for the ApoE-deficient mice, the LDLR-deficient mice are considered to be a bona-fide animal model of atherosclerosis development. If these mice are raised on a western chow diet they evolve typical symptoms of atherosclerosis involving atherosclerotic plaque formation in the aorta (FIG. 5).
LDLR−/− mice were produced as described in Ishebashi et. al. (J. Clin. Jnnvest., 1993, 92, 883-893). The 129-derived AB1 ES cell line was used. The strain was backcrossed to C57BL/6J mice for 10 generations. Ldlr^tm1Her/Ldlr^tm1Her involves: 129S7/SvEvBrd*C57BL/6. LDLR-deficient mice can also be obtained from the Jackson Laboratory (Maine, US) with the strain name B6.129S7-Ldlr^tm1Her/J (http://jaxmice.jax.org).
As in Experiment 1, ten mice being deficient in LDLR were raised on normal diet during the first 8 weeks post natum followed by the western chow diet for another eight weeks. Afterwards, the ten mice were separated into two groups for which the control group A received further feeding on a western chow diet for 4 weeks. In the test group B, the western chow diet of the following 4 weeks was supplemented with 0.5% w/w nor-UDCA. Considering a food intake of 4 g/day of chow per mouse, this corresponds to 20 mg/day of nor-UDCA per mouse. […]

[5] = treatment study, 0.5% w/w in western chow diet for 4 weeks

SMILES | arteriosclerotic plaques in red-oil stained aorta cross-sections (histological analysis) ([1]; 20 weeks post natum, FIG. 2) | sclerotic area versus the aorta area (morphometric analysis) ([1]; FIG. 3) | hepatic triglyceride amounts, liver preparations stained with oil-red (histology) ([2]; FIG. 15 a-c) | total serum cholesterol levels ([2]; FIG. 17) | weight of the brown adipose tissue ([2]; FIG. 18) | extent and size of atherosclerotic plaques, aorta en-face stained with red oil ([2]; FIG. 19) | serum transaminase (alanin-amino-transferase) levels ([2]; compared to control and UDCA, FIG. 16) | amount (weight) of white adipose tissue ([2]; compared to control or UDCA-treated mice, FIG. 18) | hepatic triglyceride levels (quantification in liver homogenate) ([2]; compared to control or UDCA-treated mice, FIG. 15 d) | sclerotic area versus the total aorta area (morphometric analysis) ([2]; vs control, FIG. 20) | number of hepatic neutrophil granulocytes (CD11b-positive cells in liver) ([3]; 0.5% w/w in western chow diet for 4 weeks after 8 weeks western chow diet, FIG. 7) | expression level of p-JNK in liver tissue (Western blot) ([3]; 0.5% w/w in western chow diet for 4 weeks after 8 weeks western chow diet, FIG. 8) | % plaques in the aortic arch (plaque area versus total area, en-face red oil) [3, 5] | aortic valve plaque area versus total surface area (plaques in % of the surface area) ([3]; treatment study, 0.5% w/w in western chow diet for 4 weeks, FIG. 13 quantification) | plaques in red-oil stained aortic valve cross-sections (histological analysis) [3, 5] | hepatic triglyceride levels ([3]; treatment study, 0.5% w/w in western chow diet for 4 weeks, compared to control or UDCA-treated mice, FIG. 9) | serum transaminase (alanin-amino-transferase) levels ([3]; treatment study, 0.5% w/w in western chow diet for 4 weeks, compared to control, FIG. 10) | total serum cholesterol levels ([3]; treatment study, 0.5% w/w in western chow diet for 4 weeks, compared to control, FIG. 11) | extent and size of atherosclerotic plaque, aorta en-face stained with red oil [4]
C[C@H](CC(=O)O)[C@H]1CC[C@H]2[C@@H]3[C@@H](O)C[C@@H]4C[C@H](O)CC[C@]4(C)[C@H]3CC[C@]12C [nor-UDCA, 24-nor[3α,7β-dihydroxy-5β-cholan-23-oic] acid] | significantly reduced extent of these plaques | significantly smaller | hepatic triglyceride amounts are decreased | does not seem to reduce serum cholesterol levels | neither UDCA nor nor-UDCA had an influence | significantly reduced | significantly reduces the serum transaminase levels | strong reduction of the amount of white adipose tissue | capable of significantly reducing the triglyceride-amount in the liver | significantly smaller | clearly reduced | capable of downregulating the expression of p-JNK | decreasing the percent of plaques | significant reduction of said % plaques | the amount of plaques is reduced | capable of significantly reducing the triglyceride-amount in the liver | trend of reducing the serum transaminase levels | seems to be capable of lowering the total cholesterol | significantly reduced
C[C@H](CCC(=O)O)[C@H]1CC[C@H]2[C@@H]3[C@@H](O)C[C@@H]4C[C@H](O)CC[C@]4(C)[C@H]3CC[C@]12C [UDCA, reference compound] | – | – | – | – | neither UDCA nor nor-UDCA had an influence | – | – | – | – | – | – | – | decreasing the percent of plaques | – | the amount of plaques is reduced | – | – | – | –

From patent publication US20100311708A1, “USE OF NOR-BILE ACIDS IN THE TREATMENT OF ARTERIOSCLEROSIS” (priority 2007, published 2010)
